Patent US6197768A, “Pyridocarbazole derivatives having cgmp-pde inhibitory activity” (Mochida Pharmaceutical Co., Ltd., priority 1996, dated 2001)
Read-outs that look alike come from different tables or passages of the source.

Experiments:
PDE type III = molecular target: T1, PDE type III (Canis lupus familiaris, UniProt A0A8I3NYE0); experiment: PDE Inhibiting Activity, type III; format: biochemical, dog (canine aorta)
T1 construct: PDE was purified from the aorta in a dog; from tissue; host or cells: dog aorta
T1 sequence (A0A8I3NYE0 1-1135): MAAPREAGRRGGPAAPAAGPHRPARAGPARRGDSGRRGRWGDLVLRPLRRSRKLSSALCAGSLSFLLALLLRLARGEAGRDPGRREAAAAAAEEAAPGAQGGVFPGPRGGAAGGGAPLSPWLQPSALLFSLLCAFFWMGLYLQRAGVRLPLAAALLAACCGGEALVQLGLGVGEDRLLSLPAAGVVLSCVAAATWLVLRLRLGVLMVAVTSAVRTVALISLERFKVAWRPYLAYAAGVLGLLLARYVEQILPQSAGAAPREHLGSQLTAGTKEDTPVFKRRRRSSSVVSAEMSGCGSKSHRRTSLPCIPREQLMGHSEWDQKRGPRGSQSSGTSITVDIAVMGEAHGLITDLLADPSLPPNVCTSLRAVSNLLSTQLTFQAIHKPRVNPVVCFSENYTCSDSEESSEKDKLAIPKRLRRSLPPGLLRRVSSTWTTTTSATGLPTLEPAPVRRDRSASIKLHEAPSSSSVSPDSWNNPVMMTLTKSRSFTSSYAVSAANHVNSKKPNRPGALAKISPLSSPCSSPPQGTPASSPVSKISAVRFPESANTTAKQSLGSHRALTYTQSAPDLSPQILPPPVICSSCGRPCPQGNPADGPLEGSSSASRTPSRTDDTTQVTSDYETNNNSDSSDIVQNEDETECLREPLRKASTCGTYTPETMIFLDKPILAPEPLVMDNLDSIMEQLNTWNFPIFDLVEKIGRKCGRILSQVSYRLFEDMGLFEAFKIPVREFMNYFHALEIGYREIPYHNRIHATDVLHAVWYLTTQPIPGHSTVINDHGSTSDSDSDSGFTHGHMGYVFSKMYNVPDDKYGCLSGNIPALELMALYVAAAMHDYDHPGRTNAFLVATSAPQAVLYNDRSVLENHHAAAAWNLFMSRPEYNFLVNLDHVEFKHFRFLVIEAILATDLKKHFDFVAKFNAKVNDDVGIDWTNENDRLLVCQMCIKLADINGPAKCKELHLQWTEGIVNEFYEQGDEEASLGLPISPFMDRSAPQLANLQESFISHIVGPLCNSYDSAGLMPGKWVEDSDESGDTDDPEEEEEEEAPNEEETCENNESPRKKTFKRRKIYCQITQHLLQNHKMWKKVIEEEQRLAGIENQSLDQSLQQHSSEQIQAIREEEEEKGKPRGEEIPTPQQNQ
Description: (§1) On the basis of the method of Lugnier et al. (Biochem. Pharmacol., 35, 1743-1751, 1986), PDE was purified from the aorta in a dog. The canine aorta was minced and homogenized with a Waring Blender and a glass homogenizer in six volumes of a Tris-HCl buffer solution (pH 7.5, 20 mM) containing 2 mM magnesium acetate, 5 mM ethylenediaminetetraacetic acid (EDTA), 100 μg/mL of phenylmethylsulforyl fluoride and 15 mM 2-mercaptoethanol (2-ME), and centrifuged at 1200 xg for 30 min. The supernatant was separated and salted out with ammonium sulfate which was added to 45% saturation. The resulting precipitated fraction was resuspended in a Tris-HCl buffer solution (pH 7.5, 20 mM) containing 2 mM magnesium acetate and 1 mM 2-ME, dialyzed overnight and applied to a DEAE-trisacryl column (DEAE […] M:IBF). By elution with a sodium chloride gradient (0-0.4 M), PDE types V and III were separated from the other isozymes. The supernatant fraction of 45% saturated ammonium sulfate was further mixed with ammonium sulfate to 65% saturation and salted out. The resulting precipitated fraction was similarly applied to the DEAE-trisacryl column and eluted by a sodium chloride gradient (0-0.4 M) so as to separate PDE type I.
(§2) The thus obtained PDE types V, III and I were measured for their activity in accordance with the method of Thompson et al. (Adv. Cyclic Nucleotide Res., 10, 69-72, 1979) and the method of Wells et al. (Biochim. Biophys. Acta, 384, 430-443, 1975). Specifically, a purified PDE sample was added to 50 mM Tris-HCl buffer solution (pH 7.5) containing 1 μM of substrate cGMP or cAMP (containing tritium-labelled cGMP or cAMP), 1 mM EGTA and 2 mM magnesium acetate. For PDE activity measurement, enzymatically produced 5' GMP or 5' AMP was further hydrolyzed into guanosine or adenosine with snake venom and separated from the substrate by means of an ion-exchange resin (Dowex 1-X2), followed by measuring with a scintillation counter. The activity of each test compound was determined as a percentage of the DPE activity measured when it was added as a dimethyl sulfoxide solution (DMSO) and its IC50 (50% inhibition concentration) was calculated by the probit method. The final concentration of DMSO was adjusted to be no more than 2% in consideration of the effect on PDE activity.

systemic blood pressure = experiment: Systemic blood (aortic) pressure lowering in anesthetized dogs; format: in vivo, adult mongrel dogs
Description: (§3) Adult mongrel dogs were anesthetized by intramuscular administration of 20 mg/kg of ketamine and intravenous administration of 20 mL/kg of physiological saline containing 5 mg/mL of α-chloralose; under artificial respiration, the aortic pressure was measured with a catheter inserted into the femoral artery and the pulmonary arterial pressure with a Swan-Ganz catheter inserted into the pulmonary artery. Anesthesia was maintained by intravenous administration of physiological saline containing 5 mg/mL of α-chloralose at a rate of 5 mL/kg per hour. Comparison was made between nitroglycerin, nifedipine and test compounds which were administered intravenously at doses of 0.01-1 mg/kg. Each test compound was dissolved in dimethylformamide (DMF) and sequentially diluted with polyethylene glycol 200 and water to give respective proportions of 20, 50 and 30% (v/v) and administrated by injection into the right femoral vein in a volume of 0.3 mL/kg. The results are shown in Table 2 below, in which maximal percent decreases in the pulmonary arterial pressure and aortic pressure are listed to show the effectiveness of each test compound in lowering the pulmonary arterial pressure and the systemic blood pressure, respectively.

[1] = tested on: pulmonary arterial pressure; experiment: Pulmonary Arterial Pressure Lowering Action in anesthetized dogs; format: in vivo, adult mongrel dogs; settings: anesthetized dogs
Description: as §3

PDE type I = experiment: PDE Inhibiting Activity, type I; format: biochemical, dog (canine aorta); settings: PDE type I from canine aorta, 1 μM substrate, pH 7.5; read-out: Inhibition Activity IC50, Type I
Description: as §1, §2

[2] = PDE type III from canine aorta, 1 μM substrate, pH 7.5, read-out: Inhibition Activity IC50, Type III
[3] = Canis lupus familiaris, iv, 0.3 mg/kg intravenous, anesthetized dogs, maximal percent decrease, read-out: Reduction in systemic blood pressure
[4] = Canis lupus familiaris, iv, 0.3 mg/kg intravenous, maximal percent decrease, read-out: Reduction in pulmonary arterial pressure

IC50 (PDE type III; [2])	IC50 (PDE type I)	SMILES	inhibition in vivo at 0.3 mg/kg (systemic blood pressure; [3])	inhibition in vivo at 0.3 mg/kg [1, 4]	also measured
9.3 µM	> 30 µM	O=c1c(Cc2cccnc2)cn2c3cc(Br)ccc3c3cc(O)cc1c32 [Example 102, 9-bromo-2-hydroxy-5-(3-pyridylmethyl)-4H-pyrido [3,2,1-jk]carbazole-4-one]	19%	24%	–
–	–	O=c1c(Cc2cccnc2)cn2c3cc(Cl)ccc3c3cc(OCCCO)cc1c32 [Example 285, 9-chloro-2-(3-hydroxypropyloxy)-5-(3-pyridylmethyl)-4H-pyrido[3,2,1-jk]carbazole-4-one methanesulfonate]	2%	16%	–
–	–	O=c1c(Cc2cccnc2)cn2c3cc(C(F)(F)F)ccc3c3cc(OCCCO)cc1c32 [Example 291, 2-(3-hydroxypropyloxy)-5-(3-pyridylmethyl)-9-trifluoromethyl-4H-pyrido[3,2,1-jk]carbazole-4-one methanesulfonate]	4%	13%	–
2.4 µM	> 30 µM	O=c1c(Cc2cccnc2)cn2c3cc(Br)ccc3c3cc(OCc4cccnc4)cc1c32 [Example 105, 9-bromo-5-(3-pyridylmethyl)-2-(3-pyridylmethyloxy)-4H-pyrido [3,2,1-jk]carbazole-4-one]	–	–	inhibition in vivo at 0.1 mg/kg (systemic blood pressure; Canis lupus familiaris, iv, 0.1 mg/kg intravenous, anesthetized dogs, maximal percent decrease, read-out: Reduction in systemic blood pressure): 12%; inhibition in vivo at 0.1 mg/kg ([1]; Canis lupus familiaris, iv, 0.1 mg/kg intravenous, maximal percent decrease, read-out: Reduction in pulmonary arterial pressure): 16%
–	–	CS(=O)(=O)O.O=c1c(Cc2cccnc2)cn2c3cc(Br)ccc3c3cc(OCCCO)cc1c32 [Example 279, 9-bromo-2-(3-hydroxypropyloxy)-5-(3-pyridylmethyl)-4H-pyrido[3,2,1-jk]carbazole-4-one methanesulfonate]	–	–	Reduction in systemic blood pressure (systemic blood pressure; 0.3 mg/kg intravenous, anesthetized dogs, maximal percent decrease): 4%; Reduction in pulmonary arterial pressure ([1]; 0.3 mg/kg intravenous, maximal percent decrease): 17%
–	–	COC(=O)C1=C(C)NC(C)=C(C(=O)OC)C1c1ccccc1[N+](=O)[O-] [Nifedipine, nifedipine, reference compound]	–	–	inhibition in vivo at 0.01 mg/kg (systemic blood pressure; Canis lupus familiaris, iv, read-out: Reduction in systemic blood pressure): 18%; inhibition in vivo at 0.01 mg/kg ([1]; Canis lupus familiaris, iv, 0.01 mg/kg intravenous, maximal percent decrease, read-out: Reduction in pulmonary arterial pressure): 3%; pulmonary arterial versus systemic blood pressure lowering (in words) ([1]; intravenous): lowered the systemic blood pressure by greater degrees than the pulmonary arterial pressure
10 µM	> 30 µM	O=c1c(Cc2cccnc2)cn2c3cc(Br)ccc3c3cc(OCCCO)cc1c32 [Example 110, 9-bromo-2-(3-hydroxypropyloxy)-5-(3-pyridylmethyl)-4H-pyrido [3,2,1-jk]carbazole-4-one]	7%	23%	–
3.9 µM	> 30 µM	CCOC(=O)COc1cc2c(=O)c(Cc3cccnc3)cn3c4ccc(Cl)cc4c(c1)c23 [Example 245]	–	–	–
3.5 µM	> 30 µM	O=C(O)COc1cc2c(=O)c(Cc3cccnc3)cn3c4cc(Br)ccc4c(c1)c23 [Example 104, 9-bromo-2-carboxymethyloxy-5-(3-pyridylmethyl)-4H-pyrido [3,2,1-jk]carbazole-4-one]	–	–	–
6.8 µM	> 30 µM	CC(C)OC(=O)COc1cc2c(=O)c(Cc3cccnc3)cn3c4ccc(Br)cc4c(c1)c23 [Example 4, 10-bromo-2-i-propoxycarbonylmethyloxy-5-(3-pyridylmethyl)-4H-pyrido [3,2,1-jk]carbazole-4-one]	–	–	–
> 30 µM	> 30 µM	COc1cc2c(=O)c(Cc3ccccc3)cn3c4cc(Br)ccc4c(c1)c23 [Example 121, 5-benzyl-9-bromo-2-methoxy-4H-pyrido [3,2,1-jk]carbazole-4-one]	–	–	–

SMILES	IC50 (PDE type III; [2])	IC50 (PDE type I)	inhibition in vivo at 0.3 mg/kg (systemic blood pressure; [3])	inhibition in vivo at 0.3 mg/kg [1, 4]	also measured
CCNC(=O)COc1cc2c(=O)c(Cc3cccnc3)cn3c4cc(Br)ccc4c(c1)c23 [Example 109, 9-bromo-2-(N-ethylcarbamoylmethyloxy)-5-(3-pyridylmethyl)-4H-pyrido [3,2,1-jk]carbazole-4-one]	–	> 30 µM	11%	19%	IC50 (PDE type III): 14 µM
Cc1cn2c3ccc(Br)cc3c3cc(OCC(=O)OC(C)(C)C)cc(c1=O)c32 [Example 50, 10-bromo-2-t-butoxycarbonylmethyloxy-5-methyl-4H-pyrido [3,2,1-jk]carbazole-4-one]	> 30 µM	> 30 µM	13%	33%	–
CC(C)(C)OC(=O)COc1cc2c(=O)ccn3c4ccc(Br)cc4c(c1)c23 [Example 60, 10-bromo-2-t-butoxycarbonylmethyloxy-4H-pyrido [3,2,1-jk]carbazole-4-one]	15 µM	> 30 µM	8%	20%	–
CC(C)(C)OC(=O)COc1cc2c(=O)c(Cc3cccnc3)cn3c4ccc(Br)cc4c(c1)c23 [Example 3, 10-bromo-2-t-butoxycarbonylmethyloxy-5-(3-pyridylmethyl)-4H-pyrido [3,2,1-jk]carbazole-4-one]	> 30 µM	> 30 µM	12%	19%	–
